The microsomal CLint is the capacity of the preparation to metabolise the compound, expressed as a volume cleared per time. Read a low microsomal CLint as slow turnover. Usually IC50 stands for the concentration at which inhibition is half-maximal. As a reminder, the CC50 is the concentration at which the toxic effect on the cells reaches its halfway point. Read a low CC50 as harm at low concentration.

Data set [1] can be described thus: Enzyme stability in human liver microsomes (Phase I). The conditions noted are these: pH 7.4; 0.5 mg/mL pooled human liver microsomes, 10 μM compound, 37° C. Type of data set: in vitro ADME. On the procedure:
Measuring of enzyme stability of the present compounds enabled estimation of their stability towards the action of Phase I biotransformation enzymes.
The rate of enzymatic decomposition of a compound was detected by incubating the reaction mixture in a dry block heater at 37° C.; the reaction mixture contained 0.5 mg/mL of pooled human liver microsomes (XenoTech, USA, cat #H6010), 10 μM of a compound, 2 mM β-nicotinamide adenine dinucleotide (Carbosynth, UK, cat #NN10871) and 4 mM of magnesium chloride in 0.1M sodium phosphate buffer (pH=7.4). The reaction was quenched with acetonitrile (100 μL of acetonitrile/100 μL of the reaction mixture). After quenching, the samples were centrifuged at 10000 rpm for 10 minutes. Supernatant fluid was tested by chromatographic technique using Agilent1200 (Agilent, USA). Chromatographic analysis was performed in a gradient elution regime with a flow rate of 1 mL/min. A graph of the logarithm of substance's peak area as a function of time was made. The dependent factor of the line corresponded to the elimination rate constant K based on which the drug's half-lif½e T and degradation rate CLint were calculated:
Based on the data obtained, candidates' enzyme stability in human liver microsomes was determined.
On the technique in general: Liver microsomes are a subcellular fraction often used to study metabolism.

In the next data set the target is CDK8/Cyclin C (Homo sapiens (Human), UniProt P49336). As to the kind of experiment: LanthaScreen binding to recombinant CDK8/Cyclin C. The conditions noted are these: TR-FRET, Tracer 236 10 nM, CDK8/Cyclin C 5 nM. As to the method: Capability of compounds of the present invention to bind to CDK8 protein was detected using LanthaScreen (ThermoFisher) assay. We detected FRET signal proportional to the amount of CDK8-bound fluorescently-labeled ligand (Tracer 236) that competes with inhibitor for ATP binding site. We carried out the measurements in a 15 μl reaction volume using a 384-well plate (Corning, #CLS4513). Enzyme CDK8/Cyclin C (ThermoFisher, #PR7261B) was mixed with antibodies Anti-His-tag-Biotin (ThermoFisher, #PV6090), Streptavidin-Eu (ThermoFisher, #PV6025), the resulting mixture was added to plate wells (5 MKπ/well). Final concentrations of substances were as follows: CDK8/Cyclin C—5 nM, Streptavidin-Eu—3 nM, Anti-His-tag-Biotin—3 nM. Staurosporine (S4400, Sigma) was used as a reference inhibitor, and 0.1% solution of dimethyl sulphoxide (DMSO) in reaction buffer was used as a blank, the reaction buffer comprised 250 mM HEPES (pH 7.5), 50 mM MgCl2, 5 mM EGTA, and 0.05% Brij-35.
CDK8/Cyclin C, sequence (P49336 whole entry): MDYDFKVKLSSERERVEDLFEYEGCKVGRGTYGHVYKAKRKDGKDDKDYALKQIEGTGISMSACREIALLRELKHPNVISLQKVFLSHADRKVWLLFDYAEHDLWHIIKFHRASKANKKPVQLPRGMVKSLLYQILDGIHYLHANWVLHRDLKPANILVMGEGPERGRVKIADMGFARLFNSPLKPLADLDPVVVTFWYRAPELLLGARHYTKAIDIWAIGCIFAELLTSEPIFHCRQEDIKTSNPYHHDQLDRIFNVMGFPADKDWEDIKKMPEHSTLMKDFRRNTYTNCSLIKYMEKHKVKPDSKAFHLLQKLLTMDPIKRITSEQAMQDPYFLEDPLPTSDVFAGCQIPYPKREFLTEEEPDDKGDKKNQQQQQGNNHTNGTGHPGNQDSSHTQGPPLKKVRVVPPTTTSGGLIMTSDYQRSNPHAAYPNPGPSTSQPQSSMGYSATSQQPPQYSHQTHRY
CDK8/Cyclin C, sequence (P24863 whole entry partner): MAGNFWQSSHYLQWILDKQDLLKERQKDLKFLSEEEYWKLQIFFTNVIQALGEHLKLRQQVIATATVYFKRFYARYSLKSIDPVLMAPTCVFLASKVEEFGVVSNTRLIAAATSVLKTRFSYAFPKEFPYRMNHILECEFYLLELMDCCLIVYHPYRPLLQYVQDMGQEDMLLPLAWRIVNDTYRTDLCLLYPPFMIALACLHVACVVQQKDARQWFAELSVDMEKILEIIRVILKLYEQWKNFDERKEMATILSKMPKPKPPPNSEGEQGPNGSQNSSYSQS
The inhibitors and controls in question were added to corresponding wells (5 μl/well). The plate was incubated at room temperature for 20 minutes. After incubating, 5 μl/well of tracer solution Alexa Fluor-647 (Kinase Tracer 236, ThermoFisher, #PV5592)) was added to the wells. Final concentration of tracer was 10 nM. Reaction buffer, instead of tracer solution, was used as a negative control. The plate was incubated for 40 minutes at 25° C., TR-FRET signal was then measured according to the manufacturer's guidelines on SPARK20 plate reader (Tecan, Switzerland), and the value was converted to the amount of kinase-bound tracer. IC50 values were calculated using SparkControl Magellan 1.2 software (Tecan, Switzerland) approximating experimental points by four-parameter logistic model with the optimization by Levenberg-Marquardt (Table 5).
On the technique in general: TR-FRET usually uses a lanthanide donor and a delayed reading to cut background.

A further data set concerns MV4-11 cells. The data set can be described thus: Antiproliferative activity, MV4-11 cells (AlamarBlue). In kind it is cell-based. The conditions noted are these: Homo sapiens, 120 h incubation, read-out: MV-4-11 IC50. On the procedure:
(§1) Antiproliferative activity of CDK8 inhibitors according to the present invention was measured in a cell-based test on continuous cell cultures MV4-11 (biphenotypic myelomonocytic leukemia, ATCC® CRL-9591™), KG-1 (acute myeloid leukemia, ATCC® CCL-246™) using a vital stain AlamarBlue (ThermoFisher, #DAL1100). The cells were grown in RPMI-1640 (PanEco, #C330p) medium with addition of 10% FBS (Gibco, #16140-071); washed and resuspended in culture medium with 10% FBS (Gibco, #16140-071) in 96-well culture plates (Corning, #3599) with ≈10×10^3 cells in […] of medium per well. The compounds in question were dissolved in DMSO and diluted with a medium with 10% FBS (Gibco, #16140-071) to a final concentration ranging from 0 to 100 μM. […] of diluted compounds were then added to each well (final DMSO concentration was less than 1%) and incubated under 5% CO2 atmosphere at 37° C. for 120 h. After incubating, 15 μL/well of AlamarBlue (ThermoFisher, #DAL1100) reagent was added, contents of plates were mixed in an orbital shaker (Biosan, Latvia) and further incubated for 3-5 h at 37° C. under 5% CO2 atmosphere. Number of living cells was estimated using a microplate spectrophotometer (Tecan Infinite M200Pro, Switzerland) measuring fluorescent signal at the excitation wavelength (λEx) of 540 nm and emission wavelength (λEm) of 590 nm.
(§2) IC50 values were calculated using Magellan 7.2 software (Tecan, Switzerland) approximating experimental points by four-parameter logistic model with the optimization by Levenberg-Marquardt (Table 6).
A general note: Alamar Blue is a resazurin reagent that responds to reducing activity.

The subject of a further data set is KG-1 cells. The data set can be described thus: Antiproliferative activity, KG-1 cells (AlamarBlue). Type of data set: cell-based. The conditions noted are these: Homo sapiens, KG-1, 120 h, 120 h incubation. As to the method:
as §1, §2

Data set [2] in a line: General cytotoxicity on HepG2 cells. In kind it is cell-based. The conditions noted are these: human, 72 h incubation. As to the method:
The CC50 values were determined in the test for General cytotoxicity On HepG2 cells (hepatocellular carcinoma, ATCC® HB-8065™). Cells per well were seeded in 96-well plates (Corning, #3599) at a concentration ≈20×10^3 cells in 100 μL of medium and incubated for 72 h with added compounds within the range of concentrations of 200 to 0.78 μM. Cell viability was assessed using the above method.

`COCCn1cc(-c2ccc(-c3cnc(N)c4ncc(C(=O)NCC5CC5)cc34)cc2)cn1` [Compound 3.45, 8-amino-N-(cyclopropylmethyl)-5-(4-(1-(2-methoxyethyl)-1H-pyrazole-4-yl)phenyl)-1,7-naphthyridine-3-carboxamide]: the intrinsic clearance (microsomal CLint) at 10 μM in data set [1] came out at 39.6 µL/min/mg. The IC50 was 1.63 nM at CDK8/Cyclin C, 3.4 nM with MV4-11 cells and 0.1 nM in the data set with KG-1 cells. For the same compound, the CC50 at 72 h in data set [2] came to 17400 nM.

Turning to `COCCn1cc(-c2ccc(-c3cnc(N)c4ncc(C(=O)NC5CC5)cc34)cc2)cn1` [Compound 3.48], the microsomal CLint at 10 μM in data set [1] was determined as 18 µL/min/mg. The IC50 on CDK8/Cyclin C came out at 1.1 nM; with MV4-11 cells it was 3.9 nM; in the data set with KG-1 cells, 2.7 nM. Moreover, the CC50 at 72 h in data set [2] came to 31800 nM.

On to `CN(C)C(=O)Cn1cc(-c2ccc(-c3cnc(N)c4ncc(C(=O)N5CCC5)cc34)cc2)cn1` [Compound 3.52, 2-(4-(4-(8-amino-3-(azetidine-1-carbonyl)-1,7-naphthyridine-5-yl)phenyl)-1H-pyrazole-1-yl)-N,N-dimethylacetamide], for which the intrinsic clearance (microsomal CLint) at 10 μM in data set [1] came to 7 µL/min/mg. For the same compound, the values for the IC50 on CDK8/Cyclin C, with MV4-11 cells and in the data set with KG-1 cells were 0.96 nM, 0.9 nM and 1.2 nM, respectively. This compound came in with a CC50 at 72 h in data set [2] of more than 100000 nM.

(Values after patent US11840531B2, “CDK8/19 inhibitors” (JOINT STOCK COMPANY “BIOCAD”, priority 2018, dated 2023).)
